Read-outs that look alike come from different tables or passages of the source.
Test system: P. falciparum Dd2 (MRA-156)
Test: SYBR Green I growth inhibition assay, Dd2
Assay type: cell-based
Details: Plasmodium falciparum
Experimental: Fig. 1. […] (B) SYBR Green–based dose response assays were conducted on early-ring stage parasites (6 hours after invasion). […] 3D7 WT (blue), NF54 (green), drug-resistant strains Dd2 (red), HB3 (black), W2 (gray), and D10-ACP-GFP (purple) lines (Sigmoidal, 4PL, X is concentration, n ≥ 3, nonlinear regression, CI: 95%). (C) Schematic diagram of the development of P. falciparum after two consecutive erythrocytic cycles. The time points at which MED6-189 was introduced are depicted in green. HPS, hours post synchronization. […] The images depict various developmental stages of the parasite’s intraerythrocytic life cycle. Bordered images represent time points when drug was first introduced (n = 3 biological replicates, P < 0.05).
Detailed information on materials and methods is available in the supplementary materials. […] P. knowlesi assays were quantitatively measured by flow cytometry using SYBR Green I and Mitrotracker Deep Red, as previously described ([84], [85]), on a Beckman Coulter CytoFLEX. […]
P. falciparum in vitro SYBR green fluorescence-based assays The anti-malarial activity of individual analogues were evaluated in-vitro against P. falciparum 3D7 (MRA-102, drug […]
green-I based fluorescence assay. Parasite growth rate and stages of development were determined via microscopy through Giemsa-stained smears of the cultures. […]

Compound `[C-]#[N+][C@]1(C)CC[C@H]2[C@@H]([C@@H](C(C)C)CC[C@]2(C)[N+]#[C-])[C@H]1O` [MED6-189] has an IC50 (DD2, 72 h) of 0.047 ± 0.007 µM and an IC50 (DD2, read-out: IC50 (µM) P. falciparum (Dd2)) of 0.017 µM.
